Assay results as given in patent publication US20150366813A1, “LIQUID-FILLED IMMEDIATE RELEASE SOFT GELATIN CAPSULES” (Banner Life Sciences LLC, priority 2014, published 2015).
Structures can show the parent of a compound that is named as a salt.

Experiment: Particle size distribution of micronized and non-micronized dabigatran etexilate mesylate
Type: physicochemical
Settings: DEM particle diameter distribution
Description: Examples of dabigatran etexilate mesylate particle size useful for the pharmaceutical composition described herein are shown in Table 9. The distribution of dabigatran etexilate mesylate particle sizes is set forth by the diameter distribution in either micronized or non-micronized samples. The dissolution of micronized and non-micronized dabigatran etexilate mesylate particles was studied using the matrix fill corresponding to DEM A as shown in Table 8 encapsulated in a hard gelatin capsule.

Row | Structure (SMILES) | Particle size D(v, 0.1) | Particle size D(v, 0.5) | Particle size D(v, 0.9)
1 | CCCCCCOC(=O)N=C(N)c1ccc(NCc2nc3cc(C(=O)N(CCC(=O)OCC)c4ccccn4)ccc3n2C)cc1 [Micronized, dabigatran etexilate mesylate] | 1.5 μm | 4.2 μm | 10.5 μm
2 | CCCCCCOC(=O)N=C(N)c1ccc(NCc2nc3cc(C(=O)N(CCC(=O)OCC)c4ccccn4)ccc3n2C)cc1 [Non-micronized, dabigatran etexilate mesylate] | 4.7 μm | 20.8 μm | 50.1 μm
